From patent publication US5489591A, “S-triazine derivative and remedy for estrogen-dependent disease containing said derivative as effective component” (Zenyaku Kogyo Kabushiki Kaisha, priority 1992, dated 1996)
Structures can show the parent of a compound that is named as a salt.

Assays:
[1] = target: T1, Aromatase (Homo sapiens, UniProt P11511); experiment: Aromatase inhibitory activity (Pharmacological Test 1, human placenta microsome); type: biochemical; conditions: substrate 4-androsten-3,17-dione 1.0×10^-6 M, read-out: AI-IC50
T1 construct: human placenta microsome; from tissue; host or cells: human placenta microsomes
T1 sequence (P11511 1-503): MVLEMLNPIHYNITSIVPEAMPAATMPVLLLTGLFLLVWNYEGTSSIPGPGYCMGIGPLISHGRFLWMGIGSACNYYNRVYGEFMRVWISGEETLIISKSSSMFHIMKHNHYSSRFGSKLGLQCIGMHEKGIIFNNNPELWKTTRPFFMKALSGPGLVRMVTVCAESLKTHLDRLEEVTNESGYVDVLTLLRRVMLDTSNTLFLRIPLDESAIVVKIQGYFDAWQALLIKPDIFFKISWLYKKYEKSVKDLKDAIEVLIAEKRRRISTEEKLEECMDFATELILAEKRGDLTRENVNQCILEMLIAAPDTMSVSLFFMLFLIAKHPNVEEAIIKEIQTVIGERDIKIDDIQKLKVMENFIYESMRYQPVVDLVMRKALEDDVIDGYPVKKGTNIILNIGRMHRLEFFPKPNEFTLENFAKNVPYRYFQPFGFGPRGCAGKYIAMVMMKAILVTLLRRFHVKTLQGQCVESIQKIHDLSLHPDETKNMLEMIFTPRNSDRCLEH
Description: Aromatase inhibitory activity was determined according to the method of E. A. Thompson and P. K. Siiteri [J. Biol. Chem., 249, 5364-5372 (1974)]. The each compound to be tested was added to a reaction vial containing human placenta microsome, [1β,2 β-^3 H]4-androsten-3,17-dione (3.3 kBq/500 pmol) and NADPH. […] The obtained [^3 H]H2 O was measured by a liquid scintillation counter. The measured quantity of [3H]H20 was used to determine aromatase activity, and was compared with the activity when incubated without inhibitor to calculate inhibition ratio (%).

[2] = target: T2, cholesterol side-chain cleaving enzyme (Sus scrofa, UniProt P10612); experiment: Inhibitory activity against cholesterol side-chain cleaving enzyme (Pharmacological Test 2, porcine adrenal mitochondria); type: biochemical; conditions: substrate 5-cholesten-3β-ol 5.0×10^-6 M, read-out: SCC-IC50
T2 construct: porcine adrenal mitochondria; from tissue; host or cells: porcine adrenal mitochondria
T2 sequence (P10612 40-520): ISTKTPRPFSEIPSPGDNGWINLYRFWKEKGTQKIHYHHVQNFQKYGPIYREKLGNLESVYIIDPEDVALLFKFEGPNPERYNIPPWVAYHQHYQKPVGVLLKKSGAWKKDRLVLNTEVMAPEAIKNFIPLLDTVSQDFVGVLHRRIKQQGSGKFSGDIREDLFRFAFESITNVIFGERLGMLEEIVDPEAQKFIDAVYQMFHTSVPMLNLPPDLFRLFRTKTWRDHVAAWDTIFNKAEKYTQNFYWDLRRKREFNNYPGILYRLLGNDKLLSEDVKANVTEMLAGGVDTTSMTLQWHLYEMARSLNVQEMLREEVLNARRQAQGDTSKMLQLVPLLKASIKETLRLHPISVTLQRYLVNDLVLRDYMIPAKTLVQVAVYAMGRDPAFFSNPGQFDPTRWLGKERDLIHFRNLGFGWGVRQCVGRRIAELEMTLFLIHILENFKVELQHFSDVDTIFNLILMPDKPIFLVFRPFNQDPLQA
Description: Inhibitory activity against cholesterol side-chain cleaving enzyme was determined according to the method of M. Shikita and P. F. Hall [Proc. Nat. […] Briefly, the each compound to be tested was added to a reaction vial containing porcine adrenal mitochondria, [4-^14 C]5-cholesten-3β-ol (250 Bq/5 nmol) and NADPH. […] These were separated by extracting the reaction mixture with methylene-dichloride followed by purifying with thin-layer chromatography. Substrate (5-cholesten-3β-ol) and reaction product (3β-hydroxypregn-5-en-20-one) were respectively measured by a liquid scintillation counter. The measured quantity of 3β-hydroxypregn-5-en-20-one was used to determine cholesterol side-chain cleaving activity which was compared with the activity when incubated without inhibitor to calculate inhibition ratio (%).

[3] = Acute toxicity in ICR female mice, oral (Pharmacological Test 4); conditions: mouse, in vivo, suspended in distilled water with 1% hydroxypropylcellulose, observation for fourteen days
Description: The acute toxicity of the compounds of the present invention was examined by the following method.

Which IC50 [1] does the source give for c1cn(-c2nc(N3CCOCC3)nc(N3CCSC3)n2)cn1 [Compound 7, 2-(1-Imidazolyl)-4-morpholino-6-(3-thiazolidinyl)-1,3,5-triazine] here?
The IC50 was 0.0066 µM.

What about the IC50 [2] of the same compound?
The IC50 was 72 µM.

What about the LD50 at 336 h [3] of the same compound?
Its LD50 at 336 h is 300 to 400 mg/kg.

With N#CC1(c2ccccc2)CCN(c2nc(N3CCOCC3)nc(-n3ccnc3)n2)CC1 [Compound 13, 2-(4-Cyano-4-phenylpiperidino)-4-(1-imidazolyl)-6-morpholino-1,3,5-triazine] as the compound, how does the IC50 [1] read?
Its IC50 is 0.009 µM.

What about the IC50 [2] of the same compound?
The IC50 was 22 µM.

What about the LD50 at 336 h [3] of the same compound?
Its LD50 at 336 h is greater than 400 mg/kg.

Which IC50 [1] does the source give for c1cn(-c2nc(N3CCOCC3)nc(N3CCOCC3)n2)cn1 [Compound 16, 2-(1-Imidazolyl)-4,6-dimorpholino-1,3,5-triazine] here?
Its IC50 is 0.0053 µM.

What about the IC50 [2] of the same compound?
Its IC50 is greater than 100 µM.

And the LD50 at 336 h [3]?
Its LD50 at 336 h is 200 to 300 mg/kg.

Which results are given for c1cn(-c2nc(N3CCOCC3)nc(N3CCSCC3)n2)cn1 [Compound 37, 2-(1-Imidazolyl)-4-morpholino-6-thiomorpholino-1,3,5-triazine]?
IC50 [1]: 0.011 µM; IC50 [2]: > 100 µM; LD50 at 336 h [3]: > 400 mg/kg

With c1ccc(C2CCN(c3nc(N4CCOCC4)nc(-n4ccnc4)n3)CC2)cc1 [Compound 38, 2-(1-Imidazolyl)-4-morpholino-6-(4-phenylpiperidino)-1,3,5-triazine] as the compound, how does the IC50 [1] read?
The IC50 was 0.038 µM.

And the IC50 [2]?
The IC50 was 23 µM.

And the LD50 at 336 h [3]?
The LD50 at 336 h was greater than 400 mg/kg.

Which IC50 [1] does the source give for O=[N+]([O-])c1ccc(N2CCN(c3nc(N4CCOCC4)nc(-n4ccnc4)n3)CC2)cc1 [Compound 45, 2-(1-Imidazolyl)-4-morpholino-6-[4-(4-nitrophenyl)-1-piperazinyl]-1,3,5-triazine] here?
The IC50 was 0.0072 µM.

And the IC50 [2]?
Its IC50 is greater than 100 µM.

Which IC50 [1] does the source give for OC1CCN(c2nc(N3CCOCC3)nc(-n3ccnc3)n2)CC1 [Compound 46, 2-(4-Hydroxypiperidino)-4-(1-imidazolyl)-6-morpholino-1,3,5-triazine] here?
Its IC50 is 0.053 µM.

What about the IC50 [2] of the same compound?
The IC50 was 100 µM.

For OCCC1CCCCN1c1nc(N2CCOCC2)nc(-n2ccnc2)n1 (stereo not shown) [Compound 47, 2-[2-(2-Hydroxyethyl)piperidino]-4-(1-imidazolyl)-6-morpholino-1,3,5-triazine], which IC50 [1] is on record?
The IC50 was 0.044 µM.

What about the IC50 [2] of the same compound?
Its IC50 is greater than 100 µM.

Which results are given for CCCCN(c1ccccc1)c1nc(-n2ccnc2)nc(-n2ccnc2)n1 [Compound 50, 2-(N-n-Butyl-N-phenylamino)-4,6-bis (1-imidazolyl)-1,3,5-triazine]?
IC50 [1]: 0.016 µM; IC50 [2]: 15 µM

For CN(c1ccc([N+](=O)[O-])cc1)c1nc(-n2ccnc2)nc(-n2ccnc2)n1 [Compound 52, 2,4-Bis(1-imidazolyl)-6-[N-methyl-N-(4-nitrophenyl)amino]-1,3,5-triazine], which IC50 [1] is on record?
The IC50 was 0.01 µM.

What about the IC50 [2] of the same compound?
Its IC50 is greater than 100 µM.

For CN(c1ccc(Cl)cc1)c1nc(-n2ccnc2)nc(-n2ccnc2)n1 [Compound 54, 2-[N-(4-Chlorophenyl)-N-methylamino]-4,6-bis(1-imidazolyl)-1,3,5-triazine], which IC50 [1] is on record?
Its IC50 is 0.0086 µM.

And the IC50 [2]?
The IC50 was 19 µM.

Which IC50 [1] does the source give for CN(c1ccc(Cl)cc1)c1nc(N2CCOCC2)nc(-n2ccnc2)n1 [Compound 55, 2-[N-(4-Chlorophenyl)-N-methylamino]-4-(1-imidazolyl)-6-morpholino-1,3,5-triazine] here?
Its IC50 is 0.0077 µM.

And the IC50 [2]?
The IC50 was 26 µM.

What about the LD50 at 336 h [3] of the same compound?
Its LD50 at 336 h is greater than 400 mg/kg.

For CN(c1ccc(N)cc1)c1nc(N2CCOCC2)nc(-n2ccnc2)n1 [Compound 56, 2-[N-(4-Aminophenyl)-N-methylamino]-4-(1-imidazolyl)-6-morpholino-1,3,5-triazine], which IC50 [1] is on record?
The IC50 was 0.032 µM.

What about the IC50 [2] of the same compound?
Its IC50 is greater than 100 µM.

With Nc1ccc(N2CCN(c3nc(N4CCOCC4)nc(-n4ccnc4)n3)CC2)cc1 [hydrochloride of No. 57, Hydrochloride of 2-[4-(4-aminophenyl)-1-piperazinyl]-4-(1-imidazolyl)-6-morpholino-1,3,5-triazine] as the compound, how does the IC50 [1] read?
The IC50 was 0.031 µM.

And the IC50 [2]?
Its IC50 is greater than 100 µM.
